These results are taken from patent US8198311B2, “Modulators of glucocorticoid receptor, AP-1, and/or NF-κB activity and use thereof” (Bristol-Myers Squibb Company, priority 2006, dated 2012).

Experiment [1] addresses T1, human full-length glucocorticoid receptor (Homo sapiens, UniProt P04150).
T1 construct: recombinantly expressed human full-length glucocorticoid receptor; purchased PanVera Co., Madison, Wis; P2816
T1 sequence (P04150 1-777): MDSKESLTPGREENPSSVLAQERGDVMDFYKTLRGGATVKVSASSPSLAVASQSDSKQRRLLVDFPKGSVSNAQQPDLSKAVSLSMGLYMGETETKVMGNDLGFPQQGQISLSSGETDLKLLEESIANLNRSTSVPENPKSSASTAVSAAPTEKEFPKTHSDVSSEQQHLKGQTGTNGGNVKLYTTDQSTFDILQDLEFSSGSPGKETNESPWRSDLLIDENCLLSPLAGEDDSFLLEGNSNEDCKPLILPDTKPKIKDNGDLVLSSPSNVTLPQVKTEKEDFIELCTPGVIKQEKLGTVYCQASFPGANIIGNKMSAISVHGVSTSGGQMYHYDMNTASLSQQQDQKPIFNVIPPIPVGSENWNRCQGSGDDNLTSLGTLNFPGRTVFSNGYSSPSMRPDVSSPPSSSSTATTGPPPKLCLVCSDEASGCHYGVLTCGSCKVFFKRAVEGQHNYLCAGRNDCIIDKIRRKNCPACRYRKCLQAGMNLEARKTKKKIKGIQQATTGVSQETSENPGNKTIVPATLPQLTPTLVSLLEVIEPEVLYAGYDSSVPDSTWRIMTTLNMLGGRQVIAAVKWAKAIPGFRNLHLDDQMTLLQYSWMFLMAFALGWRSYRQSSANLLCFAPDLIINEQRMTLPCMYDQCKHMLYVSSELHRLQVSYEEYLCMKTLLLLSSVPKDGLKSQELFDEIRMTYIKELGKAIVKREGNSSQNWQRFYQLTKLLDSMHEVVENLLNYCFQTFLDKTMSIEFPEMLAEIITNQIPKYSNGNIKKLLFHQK
The experiment can be described thus: Glucocorticoid Receptor Binding Assay (II), fluorescence polarization competitor kit (Fluormone GS1). To be noted: cell lysate with recombinant human full-length GR. As to the method:
In order to measure the binding of compounds on the glucocorticoid receptor a commercially available kit was used (Glucocorticoid receptor competitor assay kit, PanVera Co., Madison, Wis., P2816). Briefly, a cell lysate containing recombinantly expressed human full-length glucocorticoid receptor was mixed with a fluorescently labeled glucocorticoid (1 nM Fluormone GS1) in the presence or absence of test compound. After one hour at room temperature, the fluorescence polarization (FP) of the samples were measured. […] Test molecules were analyzed in the concentration range from 2.4 nM to 40 microMolar.
A general note: In fluorescence polarisation assays a small probe gives low polarisation when free and higher when bound to something large.

In experiment [2] the test system is AP-1 induced transcriptional activity. The experiment can be described thus: Cellular Transrepressional Assay (AP-1 luciferase reporter in A549 cells, PMA-activated). It counts as cell-based. The conditions noted are these: Homo sapiens, A549, 7 h, pAP-1-Luc, 10 ng/ml PMA, read-out: AP-1 (EC50, nM) (Cellular Transrepression Assay). The essentials: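 A549 cells stably carrying a 7×AP-1-luciferase reporter, stimulated with 10 ng/ml PMA with or without compound (0.1 nM-40 μM) for 7 h. Luciferase luminescence read 10 min after reagent addition; repression is percentage decrease of PMA-alone signal, EC50 by curve fitting.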

For orientation: Ki means the equilibrium dissociation constant of an inhibitor or competing ligand from its target. The EC50 is the concentration at which the effect is half-maximal. On to `COC(=O)C(=O)NCC(C)(C)[C@H](c1ccccc1)c1ccc2c(cnn2-c2ccc(F)cc2)c1` [Example 23, (R)-methyl 2-(3-(1-(4-fluorophenyl)-1H-indazol-5-yl)-2,2-dimethyl-3-phenylpropylamino)-2-oxoacetate], for which the Ki in experiment [1] was 62 nM. In addition, the EC50 in experiment [2] came out at 5960 nM.
The matching figures for `CC(C)(CNC(=O)C(=O)O)[C@H](c1ccccc1)c1ccc2c(cnn2-c2ccc(F)cc2)c1` [Example 24, (R)-2-(3-(1-(4-fluorophenyl)-1H-indazol-5-yl)-2,2-dimethyl-3-phenylpropylamino)-2-oxoacetic acid]: 351 nM and over 10000 nM.
Consider `CC(C)CC(c1ccc2c(cnn2-c2ccc(F)cc2)c1)C(C)(C)CNC(=O)C(F)(F)F` (stereo not drawn) [Example 25, 2,2,2-trifluoro-N-(3-(1-(4-fluorophenyl)-1H-indazol-5-yl)-2,2,5-trimethylhexyl)acetamide], for which the Ki in experiment [1] came out at 8.2 nM. Also, in experiment [2], the EC50 is over 10000 nM.
The matching figures for `CC(C)CC(c1ccc2c(cnn2-c2ccc(F)cc2)c1)C(C)(C)CNC(=O)NC(C)(C)CN1CCOCC1` (stereo not drawn) [Example 33, 1-(3-(1-(4-fluorophenyl)-1H-indazol-5-yl)-2,2,5-trimethylhexyl)-3-(2-methyl-1-morpholinopropan-2-yl)urea]: 74 nM and over 10000 nM.
The matching figures for `CC(C)CC(c1ccc2c(cnn2-c2ccc(F)cc2)c1)C(C)(C)CNC(=O)CC(F)(F)F` (stereo not drawn) [Example 59A, 3,3,3-trifluoro-N-(3-(1-(4-fluorophenyl)-1H-indazol-5-yl)-2,2,5-trimethylhexyl)propanamide]: 6.9 nM and 57 nM.
Regarding `CC(C)CC(c1ccc2c(cnn2-c2ccc(F)cc2)c1)C(C)(C)CNC(N)=O` (stereo not drawn) [Example 61, 1-(3-(1-(4-fluorophenyl)-1H-indazol-5-yl)-2,2,5-trimethylhexyl)urea], the Ki in experiment [1] is 9.6 nM. Also, in experiment [2], the concentration giving a half-maximal response (EC50) was 371 nM.
The matching figures for `Cn1ncc2cc([C@H](c3ccccc3)C(C)(C)CNC(=O)CC(F)(F)F)ccc21` [Example 84, (S)—N-(2,2-Dimethyl-3-(1-methyl-1H-indazol-5-yl)-3-phenylpropyl)-3,3,3-trifluoropropanamide]: 115 nM and over 10000 nM.
With `Cn1ncc2cc([C@H](c3ccccc3)C(C)(C)CNS(=O)(=O)CC(F)(F)F)ccc21` [Example 85, (S)—N-(2,2-Dimethyl-3-(1-methyl-1H-indazol-5-yl)-3-phenylpropyl)-2,2,2-trifluoroethanesulfonamide], the Ki in experiment [1] came to 2890 nM. In addition, in experiment [2], the EC50 was over 10000 nM.
The matching figures for `CC(C)n1ncc2cc([C@H](c3ccccc3)C(C)(C)CNC(=O)CC(F)(F)F)ccc21` [Example 86, (S)—N-(2,2-Dimethyl-3-(1-isopropyl-1H-indazol-5-yl)-3-phenylpropyl)-3,3,3-trifluoropropanamide]: 13 nM and over 10000 nM.
The matching figures for `CC(C)n1ncc2cc([C@H](c3ccccc3)C(C)(C)CNS(=O)(=O)CC(F)(F)F)ccc21` [Example 87, (S)—N-(2,2-Dimethyl-3-(1-isopropyl-1H-indazol-5-yl)-3-phenylpropyl)-2,2,2-trifluoroethanesulfonamide]: 33 nM and over 10000 nM.
The matching figures for `O=C(CC(F)(F)F)NCC1CC1(c1ccccc1)c1ccc2c(cnn2-c2ccc(F)cc2)c1` (stereo not drawn) [Example 88, 3,3,3-Trifluoro-N-((2-(1-(4-fluorophenyl)-1H-indazol-5-yl)-2-phenylcyclopropyl)methyl)propanamide]: 86 nM and over 10000 nM.
For the compound `O=S(=O)(CC(F)(F)F)NCC1CC1(c1ccccc1)c1ccc2c(cnn2-c2ccc(F)cc2)c1` (stereo not drawn) [Example 89, 2,2,2-trifluoro-N-((2-(1-(4-fluorophenyl)-1H-indazol-5-yl)-2-phenylcyclopropyl)methyl)ethanesulfonamide], the Ki in experiment [1] turned out to be 43 nM. Further, the EC50 in experiment [2] is over 10000 nM.
The matching figures for `CC(C)(CNc1nncs1)C(c1ccccc1)c1ccc2c(cnn2-c2ccc(F)cc2)c1` (stereo not drawn) [Example 109, N-(3-(1-(4-Fluorophenyl)-1H-indazol-5-yl)-2,2-dimethyl-3-phenylpropyl)-1,3,4-thiadiazol-2-amine]: 9.2 nM and 43 nM.
The matching figures for `O=S(=O)(CC(F)(F)F)NCCC(c1ccccc1)c1ccc2c(cnn2-c2ccc(F)cc2)c1` (stereo not drawn) [Example 110, 2,2,2-Trifluoro-N-(3-(1-(4-fluorophenyl)-1H-indazol-5-yl)-3-phenylpropyl)ethanesulfonamide]: 21 nM and over 10000 nM.
The matching figures for `O=C(CC(F)(F)F)NCCC(c1ccccc1)c1ccc2c(cnn2-c2ccc(F)cc2)c1` (stereo not drawn) [Example 111, 3,3,3-Trifluoro-N-(3-(1-(4-fluorophenyl)-1H-indazol-5-yl)-3-phenylpropyl)propanamide]: 12 nM and 240 nM.
Take `O=C(NCCC(c1ccccc1)c1ccc2c(cnn2-c2ccc(F)cc2)c1)C(F)(F)F` (stereo not drawn) [Example 112, 2,2,2-Trifluoro-N-(3-(1-(4-fluorophenyl)-1H-indazol-5-yl)-3-phenylpropyl)acetamide]: in experiment [1], the Ki came out at 11 nM. For the same compound, the EC50 in experiment [2] is 95 nM.
Consider `CC(C)(CNC(=O)C(F)(F)F)C(c1ccccc1)c1ccc2c(cnn2C2CCCCCC2)c1` (stereo not drawn) [Example 114, N-(3-(1-Cycloheptyl-1H-indazol-5-yl)-2,2-dimethyl-3-phenylpropyl)-2,2,2-trifluoroacetamide], for which, in experiment [1], the Ki is 33 nM. Further, the EC50 in experiment [2] is over 10000 nM.
On to `CC(=O)C(C)(C)C(c1ccccc1)c1ccc2c(cnn2-c2ccc(F)cc2)c1` (stereo not drawn) [Example 120, 4-(1-(4-Fluorophenyl)-1H-indazol-5-yl)-3,3-dimethyl-4-phenylbutan-2-one], for which the Ki in experiment [1] is 21 nM. Besides, the EC50 in experiment [2] is over 10000 nM.
In the case of `CC(C)(C(O)c1ccccc1)C(c1ccccc1)c1ccc2c(cnn2-c2ccc(F)cc2)c1` (stereo not drawn) [Example 121, 3-(1-(4-fluorophenyl)-1H-indazol-5-yl)-2,2-dimethyl-1,3-diphenylprop an-1-ol], in experiment [1], the Ki came out at 69 nM. The EC50 in experiment [2] amounted to 3850 nM.
The matching figures for `CC(C)(C(O)c1cccs1)C(c1ccccc1)c1ccc2c(cnn2-c2ccc(F)cc2)c1` (stereo not drawn) [Example 123, 3-(1-(4-fluorophenyl)-1H-indazol-5-yl)-2,2-dimethyl-3-phenyl-1-(thiophen-2-yl)propan-1-ol]: 71 nM and over 10000 nM.
The matching figures for `CC(C)(C(O)Cc1ccccc1)C(c1ccccc1)c1ccc2c(cnn2-c2ccc(F)cc2)c1` (stereo not drawn) [Example 124, 4-(1-(4-fluorophenyl)-1H-indazol-5-yl)-3,3-dimethyl-1,4-diphenylbutan-2-ol]: 75 nM and over 10000 nM.
The matching figures for `CC(C)(C(=O)c1ccccc1)C(c1ccccc1)c1ccc2c(cnn2-c2ccc(F)cc2)c1` (stereo not drawn) [Example 125]: 14 nM and over 10000 nM.
Regarding `CC(C)(C(=O)C1CC1)C(c1ccccc1)c1ccc2c(cnn2-c2ccc(F)cc2)c1` (stereo not drawn) [Example 126], the Ki in experiment [1] was found to be 12 nM. Besides, the EC50 in experiment [2] is over 10000 nM.
The matching figures for `CC(C)(C(=O)c1cccs1)C(c1ccccc1)c1ccc2c(cnn2-c2ccc(F)cc2)c1` (stereo not drawn) [Example 127]: 7.8 nM and 5870 nM.
The matching figures for `CC(C)(C(c1ccccc1)c1ccc2c(cnn2-c2ccc(F)cc2)c1)C(O)(c1ccccc1)C(F)(F)F` (stereo not drawn) [Example 129, 1,1,1-Trifluoro-4-(1-(4-fluorophenyl)-1H-indazol-5-yl)-3,3-dimethyl-2,4-diphenylbutan-2-ol]: 26 nM and 202 nM.
The matching figures for `CC(C)(C(c1ccccc1)c1ccc2c(cnn2-c2ccc(F)cc2)c1)C(O)(c1cccs1)C(F)(F)F` (stereo not drawn) [Example 130, 1,1,1-Trifluoro-4-(1-(4-fluorophenyl)-1H-indazol-5-yl)-3,3-dimethyl-4-phenyl-2-(thiophen-2-yl)butan-2-ol]: 252 nM and over 10000 nM.
Regarding `CC(C)(C(=O)C(F)(F)F)C(c1ccccc1)c1ccc2c(cnn2-c2ccc(F)cc2)c1` (stereo not drawn) [Example 131, 1,1,1-Trifluoro-4-(1-(4-fluorophenyl)-1H-indazol-5-yl)-3,3-dimethyl-4-phenylbutan-2-one], the inhibition constant Ki in experiment [1] amounted to 20 nM. In addition, the EC50 in experiment [2] is over 10000 nM.
